Test results as given in patent publication US6924298B2, “2-(3,5-Disubstituted-4-pyridyl)-4-(thienyl, thiazolyl or arylphenyl)-1,3-oxazoline compounds” (Dow AgroSciences LLC, priority 2000, dated 2005).

Assays:
Format in all cases: in vivo
[1] = system: sweetpotato whitefly (Bemisia tabacia); experiment: Insecticidal test for sweetpotato whitefly, spray on cotton plants; conditions: 312 h, 200 ppm spray, large nymphs counted after 13 days, read-out: WF: activity at 200 ppm against whitefly (% Control rating)
Experimental: Insecticidal Test for Sweetpotato Whitefly (Bemisia tabacia)
Four mg of each test compound was dissolved by adding 4 mL of a 90:10 acetone:ethanol solvent mixture to the vial containing the sample compound. This solution was added to 16 mL of water containing 0.05% Tween 20 surfactant to produce 20 mL of a 200 ppm spray solution.
Five-week-old cotton plants reared in a greenhouse were stripped of all foliage except for the two uppermost true leaves that were greater than 5 cm in diameter.
These plants were then placed into a laboratory colony of whiteflies for two days for oviposition by the colony females. All whiteflies were then removed from the test plants with pressurized air. The spray solution was then applied to the test plants with a hand-held syringe fitted with hollow cone nozzle. One mL of spray solution was applied to each leaf top and bottom for a total of 4 mL per plant. Four replications of each test compound utilized a total of 16 mL spray solution. Plants were air dried and then placed in a holding chamber (28° C. and 60% RH) for 13 days. Compound efficacy was evaluated by counting, under an illuminated magnifying glass, the number of large nymphs (3rd-4th instar) per leaf.
Percent control based on reduction of large nymphs of a test compound compared to solution-only (no test compound) sprayed plants is reported in Tables 1-4.

[2] = system: cotton aphid (Aphis gossypii); experiment: Insecticidal test for cotton aphid, spray on infested squash cotyledons; conditions: Aphis gossypii, 72 h; 50 ppm spray, squash cotyledons, all life stages, 3 days; read-out: CA: activity at 50 ppm against cotton aphid (% Control rating)
Experimental: Insecticidal Test for Cotton Aphid (Aphis gossypii)
To prepare spray solutions, 1 mg of each test compound was dissolved into 1 mL of a 90:10 acetone:ethanol solvent. This 1 mL of chemical solution was added to 19 mL of water containing 0.05% Tween 20 surfactant to produce a 50 ppm spray solution.
Squash cotyledons were infested with cotton aphid (all life stages)16-20 hours prior to application of spray solution. The solution was sprayed on both sides of each infested squash cotyledon (0.5 mL×2 each side) with a sweeping action until runoff. The plants were allowed to air dry and held for 3 days in a controlled room at 26° C. and 40% RH after which time the test was graded. Grading was by actual count using a dissecting microscope and comparison of test counts to the untreated check. Results are given in Tables 1-4 as percent control based on population reduction versus the untreated.

[3] = system: two-spotted spider mite (Tetranychus urticae); experiment: Insecticidal test for two-spotted spider mite, ovicide method on cotton leaf discs; conditions: Tetranychus urticae, foliar, 144 h, hatched larvae after 6 days, read-out: SM: activity against two-spotted spider mite (% Control rating)
Experimental: Insecticidal Test for Two-Spotted Spider Mite (Tetranychus urticae) Ovicide Method: Ten adult female two-spotted spider mites were placed on eight 2.2 cm leaf discs of cotton leaf, allowed to oviposit over 24 hours, and thereafter removed. […] Discs were placed on an agar substrate and held at 24° C. and 90% RH for 6 days.

[4] = system: beet armyworm (Spodoptera exigua); experiment: Insecticidal test for beet armyworm, treated lepidopteran diet; conditions: Spodoptera exigua, 120 h; 400 ppm, treated diet surface, second-instar larvae, 5 days; read-out: BAW: activity at 400 ppm against beet armyworm (% Control rating)
Experimental: (§1) Insecticidal Test for Tobacco Budworm (Heliothis virescens), Beet Armyworm (Spodoptera exigua), and Cabbage Looper (Trichoplusia ni).
(§2) To prepare the test solution, the test compound was formulated at 400 ppm in 7.5 mL of 2 acetone:1 tap water. 250 μL of the test solution was pipetted upon the surface of 8 mL of lepidopteran diet (modified Shorey) contained in each of five one-ounce plastic cups (one cup=1 replication). A second-instar beet armyworm was placed upon the treated diet in each cup once the solvent had air-dried. The solutions remaining after completing applications to the one-ounce cups were then used as leaf-dip solutions for 3.5 cm leaf discs cut from cabbage leaves and cotton cotyledons. Five discs of each type of plant were dipped until thoroughly coated into each rate of each compound (=5 replications of each treatment). After air-drying, the treated leaf discs were placed individually into one-ounce plastic cups. Each dried, treated cotton cotyledon disc was infested with a 2nd instar tobacco budworm larva, and each cabbage leaf disc was infested with a 2nd instar cabbage looper larva. Cups containing the treated substrates and larvae were capped and then held in a growth chamber at 25° C., 50-55% RH, and 14 hr light: 10 hr dark for 5 days.

[5] = system: cabbage looper (Trichoplusia ni); experiment: Insecticidal test for cabbage looper, treated cabbage leaf disc; conditions: Trichoplusia ni, foliar, 120 h; 400 ppm, leaf-dip cabbage leaf disc, 2nd instar larvae, 5 days; read-out: CL: activity at 400 ppm against cabbage looper (% Control rating)
Experimental: as §1, §2

| SMILES | pest or weed control at 200 ppm [1] | pest or weed control at 50 ppm [2] | pest or weed control [3] | pest or weed control at 400 ppm [4] | pest or weed control at 400 ppm [5] |
| --- | --- | --- | --- | --- | --- |
| Fc1ccc(-c2ccc(C3COC(c4c(Cl)cncc4Cl)=N3)cc2)cc1 (centres unmarked) [Compound 21] | < 50% | 90 to 100% | 90 to 100% | 80 to 89% |  |
| FC(F)(F)c1ccccc1-c1ccc(C2COC(c3c(Cl)cncc3Cl)=N2)cc1 (centres unmarked) [Compound 22] |  | 70 to 79% |  |  |  |
| Fc1ccccc1-c1ccc(C2COC(c3c(Cl)cncc3Cl)=N2)cc1 (centres unmarked) [Compound 23] |  | 90 to 100% | 90 to 100% | 60 to 69% | 90 to 100% |
| FC(F)(F)c1cc(-c2ccc(C3COC(c4c(Cl)cncc4Cl)=N3)cc2)cc(C(F)(F)F)c1 (centres unmarked) [Compound 24] | < 50% | < 50% |  | 90 to 100% |  |
| Cc1ccccc1-c1ccc(C2COC(c3c(Cl)cncc3Cl)=N2)cc1 (centres unmarked) [Compound 25] |  | 80 to 89% |  | 90 to 100% | < 50% |
| Cc1ccc(-c2ccc(C3COC(c4c(Cl)cncc4Cl)=N3)cc2)cc1F (centres unmarked) [Compound 26] |  | 60 to 69% |  | 60 to 69% | 60 to 69% |
| Clc1cncc(Cl)c1C1=NC(c2ccc(-c3ccccc3)cc2)CO1 (centres unmarked) [Compound 28] |  | < 50% | 90 to 100% | 80 to 89% |  |
| Cc1ccc(-c2ccc(C3COC(c4c(Cl)cncc4Cl)=N3)cc2)c(F)c1 (centres unmarked) [Compound 33] |  | < 50% |  | 80 to 89% |  |
| Fc1ccc(C(F)(F)F)cc1-c1ccc(C2COC(c3c(Cl)cncc3Cl)=N2)cc1 (centres unmarked) [Compound 34] |  | 80 to 89% |  | 60 to 69% | 90 to 100% |
| CSc1ccc(-c2ccc(C3COC(c4c(Cl)cncc4Cl)=N3)cc2)cc1 (centres unmarked) [Compound 35] |  | < 50% |  | 90 to 100% | 90 to 100% |
| FCSc1ccc(-c2ccc(C3COC(c4c(Cl)cncc4Cl)=N3)cc2)cc1 (centres unmarked) [Compound 37] |  | 90 to 100% | < 50% |  | 60 to 69% |
| Fc1cncc(F)c1C1=NC(c2ccc(I)cc2)CO1 (centres unmarked) [Compound 38, 2-(3,5-difluoro-4-pyridinyl)-4-(4-iodophenyl)oxazoline] | 90 to 100% | < 50% | 90 to 100% | 70 to 79% |  |
| Fc1cncc(F)c1C1=NC(c2ccc(-c3ccc(OC(F)(F)F)cc3)cc2)CO1 (centres unmarked) [Compound 40] |  | < 50% | 90 to 100% | 90 to 100% | 90 to 100% |
| Cc1cc(Br)ccc1C1COC(c2c(Cl)cncc2Cl)=N1 (centres unmarked) [Compound 41, 4-[4-(4-bromo-2-methylphenyl)-4,5-dihydro-1,3-oxazol-2-yl]-3,5-dichloropyridine] | < 50% | 90 to 100% | < 50% |  |  |
| CCOc1ccc(-c2ccc(C3COC(c4c(Cl)cncc4Cl)=N3)c(C)c2)cc1 (centres unmarked) [Compound 42] |  | 80 to 89% | 90 to 100% | 90 to 100% | 80 to 89% |
| C[C@H]1OC(c2c(Cl)cncc2Cl)=N[C@H]1c1ccc(I)cc1 [Compound 45, 4-[4-(4′-Iodophenyl)-5-methyl-4,5-dihydro-oxazol-2-yl]-3,5-dichloropyridines] |  | 90 to 100% |  |  |  |
| C[C@@H]1OC(c2c(Cl)cncc2Cl)=N[C@H]1c1ccc(I)cc1 [Compound 46, 4-[4-(4′-Iodophenyl)-5-methyl-4,5-dihydro-oxazol-2-yl]-3,5-dichloropyridines] |  | < 50% | < 50% |  |  |
